Assay results from ChEMBL document CHEMBL1201862, “PubChem BioAssay data set” (2004).
Activity calls are given as the source filed them.

What was measured:
[1] = target: Mitogen-activated protein kinase 10 (Homo sapiens, UniProt P53779); assay: Dose response biochemical screening assay for inhibitors of c-Jun N-Terminal Kinase 3 (JNK3). [Related pubchem assays: 746 ]
[2] = Luminescence-based counterscreen assay for KLF5 inhibitors: dose response cell-based high throughput screening assay to identify cytotoxic compounds using the IEC-6 intestinal epithelial cell line. [Related pubchem assays: 1700 (Primary screen.), 1834 (Confirmation screen.), 1858 (Summary AID.), 1905 (Counterscreen.)]; assay type: functional
[3] = luciferase reporter signal suppression in cells – H4 neuroglioma cells, luminescence, dose response (AID 1990); assay type: functional, cell-based
[4] = alpha-synuclein stem-loop translation blockers – luminescence, H4 neuroglioblastoma cells, dose confirmation, confirmation (AID 2454); assay type: functional, cell-based;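 note: H4 neuroglioblastoma cells carrying an alpha-synuclein 5'UTR luciferase reporter; potency for inhibition of the luciferase signal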
[5] = HEK-293T viability loss after treatment – luminescence, T-cell screen hits, cytotoxicity control for TCR NF-kB inhibitor project, dose response (AID 489026); assay type: functional, cell-based;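 note: cells exposed to compound about 14 hours before the viability readout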
[6] = target: T1, Luciferin 4-monooxygenase (Photinus pyralis, UniProt P08659); assay: inhibition of purified Photinus pyralis luciferase – biochemical, luminescence, dose response (AID 1891)
cells = assay type: functional, cell-based
HT-1080 = assay: HT1080 cell viability loss – fluorescence readout (AID 620); assay type: functional, cell-based; conditions: Homo sapiens
[7] = Luminescence Cell-Based Dose Confirmation HTS to Identify Inhibitors of Platelet Dense Granule Release. [Related pubchem assays: 1663 (Primary HTS), 1678 (Summary of Project)]; assay type: functional
[8] = Luminescence Cell-Based Dose Response HTS to Identify Inhibitors of 5'UTR Stem-Loop Driven Prion Protein mRNA Translation in H4 Neuroglioblastoma Cells. [Related pubchem assays: 1827 (Project Summary), 1813 (Primary HTS)]; assay type: functional
[9] = target: T1, Luciferin 4-monooxygenase; assay: Counter Screen for Luciferase-based Assay Positives. [Related pubchem assays: 620, 618, 411 ]
[10] = luciferase reporter signal reduction – luminescence, H4-C neuroglioblastoma cells, dose response (AID 2458); assay type: functional, cell-based;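 note: H4 neuroglioblastoma cells stably carrying a luciferase reporter gene fusion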
[11] = target: Dual specificity tyrosine-phosphorylation-regulated kinase 1A (Rattus norvegicus, UniProt Q63470); assay type: biochemical, Homo sapiens
[12] = alpha-synuclein stem-loop luciferase translation blockers – H4 neuroglioma cells, luminescence, confirmation (AID 1988); assay type: functional, cell-based
[13] = A Cell Based Assay for the Identification of Probe candidate Compounds with Anti- Venezuelan Equine Encephalitis virus. [Related pubchem assays: 2409, 2419, 1621, 2238, 2405, 2024, 2065, 2402, 2414, 1635, 1650, 2244 ]; assay type: functional
Vero [14] = assay: host cell viability loss, Vero E6 – synthesized analogs, cytotoxicity control for West Nile virus antiviral project, SAR follow-up (AID 2244); assay type: functional; conditions: Chlorocebus sabaeus
Vero [15] = assay: Vero 76 cell viability after compound exposure – Vero 76 cells, synthesized analogs, cytotoxicity control for West Nile virus antiviral project, SAR follow-up (AID 2414); assay type: functional; conditions: Chlorocebus sabaeus
Vero [16] = assay: Vero cell viability after compound exposure – synthesized analogs, set II, cytotoxicity control for West Nile virus antiviral project, SAR follow-up (AID 2402); assay type: functional; conditions: Chlorocebus sabaeus
Troponin, cardiac muscle = Troponin, cardiac muscle (Homo sapiens, UniProt P19429+P45379+P63316); assay: Fluorescence-based biochemical high throughput dose response assay for activators of the calcium sensitivity of cardiac Regulated Thin Filaments (RTF). [Related pubchem assays (depositor defined):AID493008, AID493018, AID504382, AID504383]; assay type: protein-complex assay
[17] = mitochondrial function rescue without frataxin homolog – Friedreich's ataxia, plus single-dose screen, dose response (AID 1465); assay type: functional;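 note: yeast depleted of Yfh1p frataxin homolog grown on glycerol needing respiration; WST-1 tetrazolium dye reduction as measure of cellular dehydrogenase metabolic activity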
[18] = Counterscreen for IDE inhibitors: Luminescence-based cell-based high throughput dose response assay to identify compounds that are cytotoxic to HEK cells. [Related pubchem assays: 434962 (Primary screen (IDE inhibitors in singlicate)), 449730 (Counterscreen (Cytotoxicity in triplicate)), 435028 (Confirmation (IDE inhibitors in triplicate)) …; assay type: functional; conditions: HEK293
Insulin-degrading enzyme = target: T2, Insulin-degrading enzyme (Homo sapiens, UniProt P14735); assay: Dose Response: Fluorescence polarization-based cell-based high throughput dose response assay for inhibitors of insulin-degrading enzyme (IDE). [Related pubchem assays: 434962 (Primary screen (IDE inhibitors in singlicate)), 449730 (Counterscreen (Cytotoxicity in triplicate)), 435028 (Confirmation (IDE inhibitors in triplicate)), 434984 (Summary …; assay type: functional
T2 sequence (P14735 whole entry): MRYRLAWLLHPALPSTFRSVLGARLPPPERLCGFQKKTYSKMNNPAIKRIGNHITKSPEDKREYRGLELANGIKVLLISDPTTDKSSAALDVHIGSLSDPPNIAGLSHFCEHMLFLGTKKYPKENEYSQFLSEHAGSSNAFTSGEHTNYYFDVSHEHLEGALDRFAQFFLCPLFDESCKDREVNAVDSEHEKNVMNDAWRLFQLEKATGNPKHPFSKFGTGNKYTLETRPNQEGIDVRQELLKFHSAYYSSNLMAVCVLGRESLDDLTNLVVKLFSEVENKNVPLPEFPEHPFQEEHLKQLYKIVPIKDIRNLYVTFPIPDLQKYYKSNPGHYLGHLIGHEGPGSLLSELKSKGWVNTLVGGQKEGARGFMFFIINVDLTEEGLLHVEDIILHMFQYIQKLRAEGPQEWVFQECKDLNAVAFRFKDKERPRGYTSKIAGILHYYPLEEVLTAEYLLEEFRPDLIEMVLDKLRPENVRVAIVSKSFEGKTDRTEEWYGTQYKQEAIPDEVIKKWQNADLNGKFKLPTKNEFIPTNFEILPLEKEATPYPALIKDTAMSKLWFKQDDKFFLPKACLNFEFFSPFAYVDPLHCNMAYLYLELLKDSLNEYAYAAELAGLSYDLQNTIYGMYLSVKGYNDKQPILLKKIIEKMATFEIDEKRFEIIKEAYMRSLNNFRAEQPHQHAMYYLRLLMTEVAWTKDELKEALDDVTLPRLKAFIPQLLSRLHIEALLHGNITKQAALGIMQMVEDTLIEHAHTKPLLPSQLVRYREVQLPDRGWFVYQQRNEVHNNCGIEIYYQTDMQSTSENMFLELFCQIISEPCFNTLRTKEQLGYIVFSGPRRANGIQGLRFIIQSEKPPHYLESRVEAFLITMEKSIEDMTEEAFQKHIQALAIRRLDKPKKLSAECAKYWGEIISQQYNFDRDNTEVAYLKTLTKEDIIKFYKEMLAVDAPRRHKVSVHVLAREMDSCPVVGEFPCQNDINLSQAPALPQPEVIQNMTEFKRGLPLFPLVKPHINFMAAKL

Streptococcus = assay: Luminescence Microorganism-Based Dose Response Follow up to Identify Compounds Cytotoxic to Streptococcus. [Related pubchem assays: 1677 (Project Summary), 1915, 1914, 1902 (Retest at Dose), 1900 (Counter Screen), 1662 (Primary HTS)]; assay type: functional, organism-based
[19] = target: Lysosomal acid glucosylceramidase (Homo sapiens, UniProt P04062); assay: Dose response cell-based high throughput screening assay to identify enhancers of beta-glucosidase activity. [Related pubchem assays: 784 ]; assay type: functional
[20] = target: T3, Dual specificity protein phosphatase 6 (Rattus norvegicus, UniProt Q64346)
T3 sequence (Q64346 whole entry): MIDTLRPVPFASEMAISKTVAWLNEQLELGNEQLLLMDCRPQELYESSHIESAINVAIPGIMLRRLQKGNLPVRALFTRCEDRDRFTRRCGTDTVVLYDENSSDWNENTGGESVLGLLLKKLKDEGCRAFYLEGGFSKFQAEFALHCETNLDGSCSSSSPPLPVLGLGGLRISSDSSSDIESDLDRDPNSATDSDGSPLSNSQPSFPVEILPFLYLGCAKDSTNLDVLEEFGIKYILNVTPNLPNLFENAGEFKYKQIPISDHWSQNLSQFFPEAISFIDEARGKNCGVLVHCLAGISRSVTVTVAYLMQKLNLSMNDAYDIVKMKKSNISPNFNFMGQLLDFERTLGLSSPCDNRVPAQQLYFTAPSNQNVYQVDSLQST

[21] = target: T4, Tyrosine-protein phosphatase non-receptor type 7 (Homo sapiens, UniProt P35236); assay type: functional
T4 sequence (P35236 whole entry): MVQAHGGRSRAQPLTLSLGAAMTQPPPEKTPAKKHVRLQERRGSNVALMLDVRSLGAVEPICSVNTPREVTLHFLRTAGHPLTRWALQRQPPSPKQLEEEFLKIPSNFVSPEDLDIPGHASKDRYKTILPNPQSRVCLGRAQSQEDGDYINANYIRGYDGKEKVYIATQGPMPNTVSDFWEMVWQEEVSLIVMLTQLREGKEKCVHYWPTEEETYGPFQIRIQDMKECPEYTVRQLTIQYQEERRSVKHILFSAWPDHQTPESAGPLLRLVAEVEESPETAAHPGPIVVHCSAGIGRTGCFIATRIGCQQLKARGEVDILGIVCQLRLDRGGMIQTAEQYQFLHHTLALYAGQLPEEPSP

[22] = target: Glyceraldehyde-3-phosphate dehydrogenase (Homo sapiens, UniProt P04406)
[23] = target: T3, Dual specificity protein phosphatase 6; assay type: functional
HEK293 [24] = assay: PMA/Ionomycin induced NF-kB luciferase assay in 293- NF-kB-Luc stable cells. [Related pubchem assays: 1299, 1270, 1295, 1375, 1287, 1281, 1293, 1291, 1289, 1280, 465, 1364, 1282, 1372, 1365, 1370, 1367, 1366, 1269, 1373, 1292, 1290, 1302, 1371, 1283, 1271, 1294, 1374, 1368, 1369 ]; assay type: functional, cell-based; conditions: Homo sapiens
HEK293 [25] = assay: PMA/Ionomycin-induced IL-8 production in HEK293- NF-kB-Luc stable cells. [Related pubchem assays: 1299, 1295, 1375, 1287, 1281, 1293, 1291, 1289, 1280, 465, 1364, 1282, 1372, 1365, 1367, 1366, 1266, 1269, 1373, 1292, 1290, 1302, 1371, 1283, 1271, 1294, 1374, 1368, 1369 ]; assay type: functional, cell-based; conditions: Homo sapiens
HEK293 [26] = assay: Cytotoxicity assay in HEK293 cells. [Related pubchem assays (depositor defined):AID1266, AID1269, AID1270, AID1271, AID1280, AID1281, AID1282, AID1283, AID1287, AID1289, AID1290, AID1291, AID1292, AID1293, AID1294, AID1295, AID1299, AID1302, AID1364, AID1365, AID1366, AID1367, AID1369, AID1370, AID1371, AID1372, AID1373, AID1374, AID1375, AID1384 …; assay type: functional, cell-based; conditions: Homo sapiens
HEK293 [27] = assay: TNF Induced NF-kB Luciferase in 293-NF-kB-Luc Stable Cells. [Related pubchem assays: 1266, 1299, 1269, 1373, 1292, 1290, 1302, 1371, 1283, 1270, 1295, 1271, 1375, 1294, 1374, 1281, 1293, 1291, 1289, 1280, 465, 1368, 1364, 1282, 1372, 1365, 1369, 1370, 1367, 1366 ]; assay type: functional, cell-based; conditions: Homo sapiens
[28] = target: T1, Luciferin 4-monooxygenase; assay: In vitro luciferase assay using purified luciferase. [Related pubchem assays: 1299, 1270, 1295, 1375, 1287, 1281, 1293, 1291, 1289, 1280, 465, 1364, 1282, 1372, 1365, 1370, 1367, 1366, 1266, 1373, 1292, 1290, 1302, 1371, 1283, 1271, 1294, 1374, 1368, 1369 ]

T1 sequence (P08659 whole entry): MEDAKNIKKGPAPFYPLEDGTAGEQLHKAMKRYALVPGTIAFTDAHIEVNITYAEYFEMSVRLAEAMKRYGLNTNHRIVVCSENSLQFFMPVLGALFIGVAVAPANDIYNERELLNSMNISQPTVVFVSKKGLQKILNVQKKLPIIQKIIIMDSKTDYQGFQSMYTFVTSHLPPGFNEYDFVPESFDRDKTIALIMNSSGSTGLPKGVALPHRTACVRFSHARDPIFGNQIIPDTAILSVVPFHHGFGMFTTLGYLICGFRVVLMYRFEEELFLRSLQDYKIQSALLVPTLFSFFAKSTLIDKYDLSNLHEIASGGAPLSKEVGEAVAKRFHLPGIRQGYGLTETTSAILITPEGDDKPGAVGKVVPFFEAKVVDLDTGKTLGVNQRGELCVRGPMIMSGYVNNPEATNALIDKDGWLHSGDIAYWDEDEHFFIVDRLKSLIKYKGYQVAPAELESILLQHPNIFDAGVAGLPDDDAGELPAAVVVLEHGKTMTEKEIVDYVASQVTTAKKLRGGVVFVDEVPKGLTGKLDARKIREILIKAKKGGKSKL
Sequence of Glyceraldehyde-3-phosphate dehydrogenase (P04406 whole entry): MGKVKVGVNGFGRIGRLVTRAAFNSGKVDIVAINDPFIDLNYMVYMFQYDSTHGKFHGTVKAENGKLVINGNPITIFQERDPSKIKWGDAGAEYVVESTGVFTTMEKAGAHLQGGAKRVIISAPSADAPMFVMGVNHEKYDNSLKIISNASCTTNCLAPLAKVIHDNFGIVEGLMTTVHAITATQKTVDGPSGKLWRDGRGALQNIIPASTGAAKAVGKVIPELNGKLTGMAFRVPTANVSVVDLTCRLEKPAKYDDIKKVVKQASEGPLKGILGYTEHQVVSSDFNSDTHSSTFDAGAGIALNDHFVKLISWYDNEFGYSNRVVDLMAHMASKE
Sequence of Mitogen-activated protein kinase 10 (P53779 whole entry): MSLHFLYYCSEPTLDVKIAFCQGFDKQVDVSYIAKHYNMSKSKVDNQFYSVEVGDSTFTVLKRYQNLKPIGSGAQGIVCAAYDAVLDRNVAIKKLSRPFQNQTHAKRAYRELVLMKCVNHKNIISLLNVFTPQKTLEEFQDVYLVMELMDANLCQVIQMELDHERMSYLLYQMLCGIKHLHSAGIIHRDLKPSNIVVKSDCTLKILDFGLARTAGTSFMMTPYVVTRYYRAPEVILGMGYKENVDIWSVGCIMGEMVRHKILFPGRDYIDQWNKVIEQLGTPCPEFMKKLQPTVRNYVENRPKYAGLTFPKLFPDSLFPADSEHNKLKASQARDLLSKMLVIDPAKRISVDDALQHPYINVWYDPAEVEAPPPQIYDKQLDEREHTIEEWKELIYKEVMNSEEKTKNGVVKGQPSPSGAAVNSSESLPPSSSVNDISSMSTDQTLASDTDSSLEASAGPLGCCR
Sequence of Lysosomal acid glucosylceramidase (P04062 whole entry): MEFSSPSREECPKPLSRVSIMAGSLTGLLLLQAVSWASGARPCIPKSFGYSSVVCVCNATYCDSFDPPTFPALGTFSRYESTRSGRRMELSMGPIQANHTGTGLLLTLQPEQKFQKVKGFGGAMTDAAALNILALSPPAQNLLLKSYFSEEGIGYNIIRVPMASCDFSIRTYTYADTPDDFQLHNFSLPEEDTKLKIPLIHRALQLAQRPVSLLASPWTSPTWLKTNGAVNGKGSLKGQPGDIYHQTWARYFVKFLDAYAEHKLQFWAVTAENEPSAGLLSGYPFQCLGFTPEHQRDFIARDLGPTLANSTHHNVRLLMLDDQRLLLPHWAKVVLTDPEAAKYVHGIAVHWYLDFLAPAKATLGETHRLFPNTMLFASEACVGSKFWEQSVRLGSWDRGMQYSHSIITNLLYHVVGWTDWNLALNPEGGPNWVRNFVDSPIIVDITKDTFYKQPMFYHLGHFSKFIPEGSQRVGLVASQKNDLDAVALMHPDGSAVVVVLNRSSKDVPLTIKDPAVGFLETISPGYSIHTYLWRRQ

CCN1C=CC(=C2C(=O)c3ccccc3C2=O)C=C1
IC50 [1]: 43.5 µM (not active)
IC50 [2]: 15 µM (not active)
EC50 [3]: < 0.1 µM (active)
EC50 [4]: 0.247 µM (active)
IC50 [5]: > 80 µM (inactive)
EC50 [6]: 1.85 µM (active)
EC50 (cells): 0.317 µM (active)
EC50 (HT-1080): > 50 µM (not active)
EC50 [7]: 6.3 µM (active)
EC50 [8]: < 0.1 µM (active)
EC50 [9]: 10.1 µM (active)
EC50 [10]: 0.324 µM (active)
AC50 [11]: 13.6 µM (active)
EC50 [12]: < 0.1 µM (active)

COc1ccc(-c2csc(N(C(=O)c3ccccc3Cl)C(C)C)n2)cc1
IC50 [13]: > 66.6 µM (active)
CC50 (Vero [14]): 22.4 µM (active)
CC50 (Vero [15]): 35.5 µM (active)
CC50 (Vero [16]): 13.5 µM (active)

CCOC(=O)/C(=C/C1=CC(=C/N(C)C)/C(=O)O1)C(C)=O
EC50 (Troponin, cardiac muscle): 7.74 µM (active)
EC50 [17]: > 100 µM (active)
IC50 [18]: > 55.7 µM (not active)
IC50 (Insulin-degrading enzyme): 22.1 µM (not active)

O=C(CSc1cccs1)N1c2ccccc2Sc2ccccc21
EC50 (Streptococcus): > 500 µM (not active)

COc1ccc(CNC(=O)CCCNS(=O)(=O)c2cccc3nonc23)cc1
EC50 [19]: > 50 µM (not active)

O=C(O)C1Nc2c(F)cccc2C2C=CCC12 (stereo not drawn)
IC50 [20]: 19.8 µM (active)
IC50 [21]: 5.4 µM (active)
IC50 [22]: > 100 µM (not active)
IC50 [23]: 17.2 µM (active)

O=C(NC1CCCCCC1)c1ccc([N+](=O)[O-])o1
EC50 (HEK293 [24]): 3.29 µM (active)
EC50 (HEK293 [25]): 4.02 µM (not active)
EC50 (HEK293 [26]): > 8 µM (inactive)
EC50 (HEK293 [27]): > 8 µM (not active)
EC50 [28]: > 8 µM (not active)
